Assay results published in US20120323002A1, “IMIDAZOPYRIDAZINE COMPOUNDS” (AJINOMOTO CO., INC., priority 2009, published 2012).

Columns and labels:
Type in all cases: cell-based, mouse (female Balb/c)
[1] = system: IL-12p70 (IL-12p35/p40 complex); experiment: Cytokine inhibiting action using mouse whole blood: IL-12p70 production (ELISA); conditions: mouse whole blood (EDTA), 200 ng/mL mouse interferon-γ + 1.25% (v/v) SAC, incubated overnight; 50% production inhibition concentration
Protocol: The blood (EDTA addition) was collected from a mouse (female Balb/c) and used for evaluation. 200 ng/mL of mouse interferon-γ, a 1.25% (v/v) suspension of killed Staphylococcus aureus Cowan I strain (SAC) and a compound of the present invention were added to a cell culture medium, diluted to become a quantity equal to the blood and incubated overnight.

[2] = system: IL-12p70 (IL-12p35/p40 complex); experiment: Cytokine inhibiting action using mouse peritoneal macrophages: IL-12p70 production (ELISA); conditions: Peritoneal macrophage, 100 ng/mL mouse interferon-γ + 0.05% (v/v) SAC, incubated overnight, 50% production inhibition concentration
Protocol: (§1) 1 mL of a 3% (w/v) thioglycolate solution was intraperitoneally administered to a mouse (female Balb/c). 5 or 6 days later, the peritoneal cells of the mouse were collected, and the adherent cells were used for evaluation. 100 ng/mL of mouse interferon-γ, a 0.05% (v/v) suspension of killed Staphylococcus aureus Cowan I strain (SAC) and a compound of the present invention were added thereto and incubated overnight. After the incubation, the survival rate was measured, and each of IL-12p70 (IL-12p35/p40 complex) and TNF-α was quantified by ELISA using the collected culture supernatant to calculate the 50% production inhibition concentration (IC50) (refer to Table 1; meanwhile, the blanks in the table indicate unmeasured).

TNF-α = experiment: Cytokine inhibiting action using mouse peritoneal macrophages: TNF-α production (ELISA); conditions: Peritoneal macrophage, 100 ng/mL mouse interferon-γ + 0.05% (v/v) SAC, incubated overnight, 50% production inhibition concentration
Protocol: as §1

IC50 [1] [nM]	IC50 [2] [nM]	IC50 (TNF-α) [nM]	Structure (SMILES)
340	16		C(=N\Nc1cc(N2CCOCC2)c2nc(-c3ccncc3)cn2n1)/c1cc2ccccc2[nH]1 [Compound 21, N-(1H-indol-2-ylmethylene)-N-(8-morpholin-4-yl-2-pyridin-4-yl-imidazo[1,2-b]pyridazin-6-yl)-hydrazine]
150	9.4		C(=N\Nc1cc(N2CCOCC2)c2nc(-c3ccncc3)cn2n1)/c1ccc2occc2c1 [Compound 20, N-benzofuran-5-ylmethylene-N′-(8-morpholin-4-yl-2-pyridin-4-yl-imidazo[1,2-b]pyridazin-6-yl)-hydrazine]
1200	44		CN1CCc2ccc(/C=N/Nc3cc(N4CCOCC4)c4nc(-c5ccncc5)cn4n3)cc21 [Compound 27, N-(N-methylindoline-6-ylmethylene)-N-(8-morpholin-4-yl-2-pyridin-4-yl-imidazo[1,2-b]pyridazin-6-yl)-hydrazine]
550	63		CN(C)c1cccc(/C=N/Nc2cc(N3CCOCC3)c3nc(-c4ccncc4)cn3n2)c1 [Compound 23, N-(3-dimethylamino-benzylidene)-N-(8-morpholin-4-yl-2-pyridin-4-yl-imidazo[1,2-b]pyridazin-6-yl)-hydrazine]
	130		CC(C)c1cccc(/C=N/Nc2cc(N3CCOCC3)c3nc(-c4ccncc4)cn3n2)c1 [Compound 14, N-(3-isopropyl-benzylidene)-N′-(8-morpholin-4-yl-2-pyridin-4-yl-imidazo[1,2-b]pyridazin-6-yl)-hydrazine]
	1100		CCCCC(C)c1cccc(/C=N/Nc2cc(N3CCOCC3)c3nc(-c4ccncc4)cn3n2)c1 (stereo not drawn) [Compound 18, N-[3-(1-methyl-pentyl)-benzylidene]-N′-(8-morpholin-4-yl-2-pyridin-4-yl-imidazo[1,2-b]pyridazin-6-yl)-hydrazine]
	37		CC(=O)c1cccc(/C=N/Nc2cc(N3CCOCC3)c3nc(-c4ccncc4)cn3n2)c1 [Compound 17, N-(3-acetyl-benzylidene)-N′-(8-morpholin-4-yl-2-pyridin-4-yl-imidazo[1,2-b]pyridazin-6-yl)-hydrazine]
1400	1.1		Cc1cccc(/C=N/Nc2cc(N3CCOCC3)c3nc(-c4cn[nH]c4)cn3n2)c1 [Compound 29, N-(3-methyl-benzylidene)-N′-{8-morpholin-4-yl-2-(1H-pyrazol-4-yl)-imidazo[1,2-b]pyridazin-6-yl}-hydrazine]
	370		Cc1ccc(/C=N/Nc2cc(N3CCOCC3)c3nc(-c4ccncc4)cn3n2)[nH]1 [Compound 24, N-(5-methyl-1H-pyrrol-2-ylmethylene)-N-(8-morpholin-4-yl-2-pyridin-4-yl-imidazo[1,2-b]pyridazin-6-yl)-hydrazine]
1900	5.2		Cc1ccc(-c2cn3nc(N/N=C/c4c[nH]c5ccccc45)cc(N4CCOCC4)c3n2)cn1 [Compound 30, N-(1H-indol-3-yl-methylene)-N′-[2-(6-methyl-pyridin-3-yl)-8-morpholin-4-yl-imidazo[1,2-b]pyridazin-6-yl]-hydrazine]
	77		C=C(C)c1cccc(/C=N/Nc2cc(N3CCOCC3)c3nc(-c4ccncc4)cn3n2)c1 [Compound 16, N-(3-isopropenyl-benzylidene)-N′-(8-morpholin-4-yl-2-pyridin-4-yl-imidazo[1,2-b]pyridazin-6-yl)-hydrazine]
290	76		Cc1ccccc1/C=N/Nc1cc(N2CCOCC2)c2nc(-c3ccncc3)cn2n1 [Compound 28, N-(2-methyl-benzylidene)-N′-(8-morpholin-4-yl-2-pyridin-4-yl-imidazo[1,2-b]pyridazin-6-yl)-hydrazine]
270	46		FCc1ccc(/C=N/Nc2cc(N3CCOCC3)c3nc(-c4ccncc4)cn3n2)cc1 [Compound 26, N-(4-fluoromethyl-benzylidene)-N′-(8-morpholin-4-yl-2-pyridin-4-yl-imidazo[1,2-b]pyridazin-6-yl)-hydrazine]
110	40		FC(F)c1cccc(/C=N/Nc2cc(N3CCOCC3)c3nc(-c4ccncc4)cn3n2)c1 [Compound 22, N-(3-difluoromethyl-benzylidene)-N-(8-morpholin-4-yl-2-pyridin-4-yl-imidazo[1,2-b]pyridazin-6-yl)-hydrazine]
	6.4		C=Cc1cccc(/C=N/Nc2cc(N3CCOCC3)c3nc(-c4ccncc4)cn3n2)c1 [Compound 19, N-(3-vinyl-benzylidene)-N-(8-morpholin-4-yl-2-pyridin-4-yl-imidazo[1,2-b]pyridazin-6-yl)-hydrazine]
	54		C(=N\Nc1cc(N2CCOCC2)c2nc(-c3ccncc3)cn2n1)/c1ccc2cc[nH]c2c1 [Compound 15, N-(1H-indol-6-yl-methylidene)-N′-(8-morpholin-4-yl-2-pyridin-4-yl-imidazo[1,2-b]pyridazin-6-yl)-hydrazine]
63	44		Cc1ccc(/C=N/Nc2cc(N3CCOCC3)c3nc(-c4ccncc4)cn3n2)cc1 [Compound 25, N-(4-methyl-benzylidene)-N′-(8-morpholin-4-yl-2-pyridin-4-yl-imidazo[1,2-b]pyridazin-6-yl)-hydrazine]

Second part, the compound before the results:

Structure (SMILES)	IC50 [1] [nM]	IC50 [2] [nM]	IC50 (TNF-α) [nM]
Cc1cccc(/C=N/Nc2cc(N3CCOCC3)c3nc(-c4cnn(-c5ccccc5)c4C)cn3n2)c1 [Compound 5, N-(3-methyl-benzylidene)-N′-[2-(5-methyl-1-phenyl-1H-pyrazol-4-yl)-8-morpholin-4-yl-imidazo[1,2-b]pyridazin-6-yl]-hydrazine]		33	
Cc1cccc(/C=N/Nc2cc(N3CCOCC3)c3nc(-c4ccc(N5CCCC5)cc4)cn3n2)c1 [Compound 7, N-(3-methyl-benzylidene)-N′-[8-morpholin-4-yl-2-(4-pyrrolidin-1-yl-phenyl)-imidazo[1,2-b]pyridazin-6-yl]-hydrazine]		40	
C(=N\Nc1cc(N2CCOCC2)c2nc(-c3ccncc3)cn2n1)/c1c[nH]c2ccccc12 [Compound 6, N-(1H-indol-3-yl-methylidene)-N′-(8-morpholin-4-yl-2-pyridin-4-yl-imidazo[1,2-b]pyridazin-6-yl)-hydrazine]		92	
CCc1cccc(/C=N/Nc2cc(N3CCOCC3)c3nc(-c4ccncc4)cn3n2)c1 [Compound 10, N-(3-ethyl-benzylidene)-N′-(8-morpholin-4-yl-2-pyridin-4-yl-imidazo[1,2-b]pyridazin-6-yl)-hydrazine]	180	8.1	
Cc1cccc(/C=N/Nc2cc(N3CCOCC3)c3nc(-c4ccncc4)cn3n2)c1 [Compound 4, N-(3-methyl-benzylidene)-N′-(8-morpholin-4-yl-2-pyridin-4-yl-imidazo[1,2-b]pyridazin-6-yl)-hydrazine]	470	3.6	> 10000
C(=N\Nc1cc(N2CCOCC2)c2nc(-c3ccncc3)cn2n1)/c1coc2ccccc12 [Compound 9, N-benzofuran-3-yl-methylidene-N′-(8-morpholin-4-yl-2-pyridin-4-yl-imidazo[1,2-b]pyridazin-6-v)-hydrazine]	890	76	
C(=N\Nc1cc(N2CCOCC2)c2nc(-c3ccccc3)cn2n1)/c1c[nH]c2ccccc12 [Compound 2, N-(1H-indol-3-yl-methylidene)-N′-(8-morpholin-4-yl-2-phenyl-imidazo[1,2-b]pyridazin-6-yl)-hydrazine]		36	
Cc1[nH]c2ccc(/C=N/Nc3cc(N4CCOCC4)c4nc(-c5ccncc5)cn4n3)cc2c1C [Compound 12, N-(2,3-dimethyl-1H-indol-5-yl-methylidene)-N′-(8-morpholin-4-yl-2-pyridin-4-yl-imidazo[1,2-b]pyridazin-6-yl)-hydrazine]		140	
Cc1cccc(/C=N/Nc2cc(N3CCOCC3)c3nc(-c4ccc(-c5ccccn5)s4)cn3n2)c1 [Compound 8, N-(3-methyl-benzylidene)-N′-[8-morpholin-4-yl-2-(5-pyridin-2-yl-thiophen-2-yl)-imidazo[1,2-b]pyridazin-6-yl]-hydrazine]	1500	15	
C(=N\Nc1cc(N2CCOCC2)c2nc(-c3ccncc3)cn2n1)/c1csc2ccccc12 [Compound 11, N-benzo[b]thiophen-3-yl-methylidene-N′-(8-morpholin-4-yl-2-pyridin-4-yl-imidazo[1,2-b]pyridazin-6-yl)-hydrazine]	1000	30	
Cc1ccc(/C=N/Nc2cc(N3CCOCC3)c3nc(-c4ccncc4)cn3n2)o1 [Compound 13, N-(5-methyl-furan-2-yl-methylidene)-N′-(8-morpholin-4-yl-2-pyridin-4-yl-imidazo[1,2-b]pyridazin-6-yl)-hydrazine]		190	
Cc1cccc(/C=N/Nc2cc(N3CCOCC3)c3nc(-c4cccnc4)cn3n2)c1 [Compound 3, N-(3-methyl-benzylidene)-N′-(8-morpholin-4-yl-2-pyridin-3-yl-imidazo[1,2-b]pyridazin-6-yl)-hydrazine]	3000	8.7	> 10000
Cc1cccc(/C=N/Nc2cc(N3CCOCC3)c3nc(-c4ccccc4)cn3n2)c1 [Compound 1, N-(3-methyl-benzylidene)-N′-(8-morpholin-4-yl-2-phenyl-imidazo[1,2-b]pyridazin-6-yl)-hydrazine]		32	
